Article PMC11093748, “De novo identification of CD4^+ T cell epitopes” (Nature Methods, 2024)

How the values were obtained:
Experiment in all cases: Multiplexed TCR/library dropout screen, mean ES
Assay type in all cases: cell-based, mouse
TCR3 = settings: two I-Ag7 libraries combined, mixture of seven TCRs, dropout replicates (n = 6)
Source text: (§1) Finally, we sought to address two important aspects of antigen discovery techniques. First, we assessed whether SABR-II screens can directly read out the strength of TCR–pMHC binding. To that end, we selected six known BDC2.5 ligands across a range of ES values (Extended Data Fig. 9a) and we measured the functional avidity of their recognition by BDC2.5 TCR in vitro. Bone-marrow-derived dendritic cells were pulsed with a range of concentrations of peptides corresponding to the epitopes and used to present the peptides to BDC2.5 TCR-expressing 5KC cells. Secretion of mIL-2 was measured by ELISA and used to determine the functional avidity as EC50 (concentration of the peptide needed to induce half-maximal mIL-2) (Extended Data Fig. 9b). We observed that there was a modest negative correlation between the EC50 values of the epitopes and their ES values (Extended Data Fig. 9c). […] Second, we evaluated whether we could increase the throughput of SABR-II screens by multiplexing TCRs and libraries at the cellular level. We combined the two previously described I-Ag7 libraries in equal proportions according to their size and used it as a single library. We also employed a dropout strategy, in which a mixture of seven TCRs was screened in replicate, where one TCR was left out in each replicate. After single enrichment, we determined the mean ES of all replicates that contained a given TCR and used it to identify the cognate epitope of that TCR (Extended Data Fig. 10 and Supplementary Table 6). Using this strategy, we were able to successfully recapitulate the results for four out of four TCRs previously identified in individual screens. The use of such a strategy will greatly enhance the throughput or SABR-II screens by reducing the hands-on sort time from 1 h per TCR to 20 min per TCR.
(§2) For SABR library screens, 3 × 10^6 NFAT–GFP Jurkat cells expressing the SABR library were labeled with CellTrace Violet (BioLegend) according to the manufacturer’s protocol before incubation with 3 × 10^6 Jurkat cells expressing the TCR of interest. These mixtures were incubated in a six-well plate for 16–20 h. Cells were stained with anti-CD69-APC-Cy7 where indicated (BioLegend) and the top 1–2% of GFP^+CD69^+ cells were sorted for genomic DNA extraction, indexing and sequencing (see below). Multiplexed assays were scaled on a per-TCR basis (for example 3 × 10^6 for each of three TCRs against 9 × 10^6 library cells). For single SABR assays, unless otherwise defined, 5 × 10^5 SABR expressing NFAT–GFP Jurkat cells (or 5KC cells) were labeled with CellTrace Violet (BioLegend) according to the manufacturer’s protocol before incubation with 5 × 10^5 TCR-expressing Jurkat cells (or 5KC cells) in a round-bottom 96-well plate for 16–20 h. Cells were stained with anti-CD69-APC-Cy7 when indicated and acquired on the Attune NxT flow cytometer (Thermo Fisher Scientific). All flow analysis was performed using FlowJo (BD). For Daudi cell co-culture, 1 × 10^6 Jurkat cells expressing the TCR of interest were incubated with 1 × 10^6 Daudi cells expressing a SABR of interest for 3 days. On day 3, cells were labeled with anti-RT1B-PE and anti-Fas-APC-Cy7 before being acquired on the Attune NxT flow cytometer.
(§3) Genomic DNA was extracted from sorted cells immediately after sorting, using the PureLink genomic DNA extraction kit (Life Technologies). The integrated SABR vectors were amplified with KOD polymerase (Millipore) and two rounds of amplification. In the first round, IDT-UD-SABR-C2-F and IDT-UD-SABR-C2-R primers were used to amplify the epitope. In the second round, UDI0001-R and UDI0001-F primers (representative of index 1) were used to add Illumina unique dual indexes (UDIs) to the amplicons. A different UDI was used for each sample. The reactions were pooled and purified with the NucleoSpin gel and PCR purification kit (Takara). The purified PCR product was checked before sequencing using 2% agarose gel and subjected to sequencing on a HiSeq4000 (Fulgent Genetics). […]

TCR2 = settings: Avg ES for all the replicates that contain that TCR (TCR2)
Source text: as §1, §2, §3

TCR1 = settings: two I-Ag7 libraries combined, mixture of seven TCRs, dropout replicates (n = 6); one biological experiment
Source text: as §1, §2, §3

TCR5 = settings: two I-Ag7 libraries combined, mixture of seven TCRs, dropout replicates (n = 6)
Source text: as §1, §2, §3

TCR37 = settings: Avg ES for all the replicates that contain that TCR (TCR37)
Source text: as §1, §2, §3

TCR7 = settings: two I-Ag7 libraries combined, mixture of seven TCRs, dropout replicates (n = 6)
Source text: as §1, §2, §3

TCR24 = settings: Avg ES for all the replicates that contain that TCR (TCR24)
Source text: as §1, §2, §3

Row | Sequence | Mean Dropout Enrichment Score (TCR3) | ES for each dropout, LOO_TCR2 (TCR2) | Mean Dropout Enrichment Score (TCR1) | Mean Dropout Enrichment Score (TCR5) | ES for each dropout, LOO_TCR37 (TCR37) | Mean Dropout Enrichment Score (TCR7) | ES for each dropout, LOO_TCR24 (TCR24)
1 | AAVEEGIVAGGGVTLL | -1.302e-6 | 1.97e-6 | 9.635e-6 | -4.831e-6 | 2.247e-6 | -1.2378e-6 | 1.546e-6
2 | AEKVRNLPAGHGLNAQ | -2.694e-5 | -1.229e-5 | -4.113e-5 | -3.449e-5 | -2.944e-5 | -3.038e-5 | -1.89e-5
3 | AGGVAVIKAGAATEV | 3.191e-5 | 7.935e-6 | 1.903e-5 | 1.931e-5 | 1.413e-5 | 2.296e-5 | 2.636e-5
4 | AKAAVEEGIVAGGGV | 1.247e-5 | 1.371e-5 | 1.526e-5 | 9.209e-6 | 7.483e-6 | -7.192e-6 | 8.2968e-7
5 | ALVREGLRNVAAGANP | -1.224e-5 | -1.224e-5 | -1.224e-5 | -1.224e-5 | -1.224e-5 | -1.224e-5 | -1.224e-5
